Reference: patent publication US20110065760A1, “COMPOUNDS FOR THE INHIBITION OF ROTAMASES AND USE THEREOF” (Jerini AG, priority 2002, published 2011)

Experiments:
Papain = biological target: T1, Papain (Carica papaya, UniProt P00784); test: papain assay; type: biochemical; settings: 16 μg/ml papain, 2 mM Bz-DL-Arg-pNA, pH 6.5, 30° C., 30 min incubation; read-out: IC50 class, Target T-6 (Papain)
T1 sequence (P00784 134-345): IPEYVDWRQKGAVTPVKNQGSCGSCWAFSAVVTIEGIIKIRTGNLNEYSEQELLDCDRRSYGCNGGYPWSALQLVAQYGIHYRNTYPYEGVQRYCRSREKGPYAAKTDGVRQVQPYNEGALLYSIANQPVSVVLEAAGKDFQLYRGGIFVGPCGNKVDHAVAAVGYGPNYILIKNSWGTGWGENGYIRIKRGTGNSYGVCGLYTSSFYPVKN
Summary of the method: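 Enzyme pre-incubated 30 min with 1-100 μM compound at 30° C, then pNA substrate added; 4-nitroaniline release read at 390 nm. Trypsin: 0.1 μg/ml, 120 μM Ac-Ala-Ala-Ser(PO3H2)-Pro-Arg-pNA, HEPES pH 7.8; cathepsin B: 0.2 μg/ml, 2 mM Z-Arg-Arg-pNA, phosphate/EDTA/Brij 35 pH 5.8; papain: 16 μg/ml, 2 mM Bz-DL-Arg-pNA, phosphate/L-Cys/EDTA pH 6.5.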

Trypsin = biological target: T2, Trypsin (UniProt P00760); test: trypsin assay; type: biochemical; settings: 0.1 μg/ml trypsin, 120 μM Ac-Ala-Ala-Ser(PO3H2)-Pro-Arg-pNA, pH 7.8, 30° C., 30 min incubation; read-out: IC50 class, Target T-7 (Trypsin)
T2 sequence (P00760 1-246): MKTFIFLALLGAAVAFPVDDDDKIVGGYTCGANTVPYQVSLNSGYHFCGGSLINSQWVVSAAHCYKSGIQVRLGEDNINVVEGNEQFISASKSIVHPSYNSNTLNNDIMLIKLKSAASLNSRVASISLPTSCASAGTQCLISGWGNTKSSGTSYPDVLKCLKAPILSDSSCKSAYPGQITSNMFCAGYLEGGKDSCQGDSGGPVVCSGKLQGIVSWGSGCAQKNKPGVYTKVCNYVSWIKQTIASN
Description: In order to investigate the impact of some of the inventive compounds on the activity of key proteases the following assay was performed: Protease activities were measured spectrophotometrically at 30° C. according to Schomburg and Salzmann (Schomburg, B.; Salzmann M. GBF: Enzyme Handbook. Springer Verlag, Berlin Heidelberg, 1991) and Bergmeyer et al. (Bergmeyer, H. U.; Bergmeyer, J.; Graβl, M. Methods of Enzymatic Analysis, Vol. V Enzymes 3: Peptides, Proteinases and Their Inhibitors. pp 55-371, VCH, Weinheim, 1988). The release of 4-nitroaniline was determined at 390 nm with a Spectramax Plus UV/Vis spectrophotometer (Molecular Devices). The cathepsin B assay was performed in a reaction mixture containing 0.2 μg/ml cathepsin B, 2 mM Z-Arg-Arg-pNA in 88 mM KH2PO4, 12 mM Na2HPO4, 1.33 mM EDTA, 0.03% Brij 35 (pH 5.8). The trypsin assay was carried out in a reaction mixture containing 0.1 μg/ml trypsin and 120 μM Ac-Ala-Ala-Ser(PO3H2)-Pro-Arg-pNA in 35 mM HEPES (pH 7.8) and the papain assay in a mixture consisting of 16 μg/ml papain and 2 mM Bz-DL-Arg-pNA in 10 mM Na2HPO4, 2 mM L-Cys, 5 mM EDTA (pH 6.5). In general, reactions were started by addition of peptide substrate after a 30 min incubation of 1-100 μM effector with given concentrations of enzyme.

hPin1 = hPin1 (Homo sapiens, UniProt Q13526); test: protease-coupled PPIase assay, hPin1; type: biochemical; settings: 6 nM hPin1, substrate Ac-Ala-Ala-Ser(PO3H2)-Pro-Arg-pNA, trypsin, pH 7.8, 6° C.; read-out: IC50 class, Target T-1 (hPin1)
Sequence of hPin1 (Q13526 whole entry): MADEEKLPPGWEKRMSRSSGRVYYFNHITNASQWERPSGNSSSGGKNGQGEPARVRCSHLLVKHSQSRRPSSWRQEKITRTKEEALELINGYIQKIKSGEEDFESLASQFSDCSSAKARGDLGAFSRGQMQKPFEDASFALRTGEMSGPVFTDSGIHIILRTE

HL-60 cells = test: FACS measurements and TUNEL assay (Apo-Direct kit); type: cell-based, human; settings: FIG. 2
Source text: Enari M. Sakahira H. Yokoyama H. Okawa K. Iwamatsu A. Nagata S. A caspase-activated DNase that degrades DNA during apoptosis, and its inhibitor ICAD [erratum appears in Nature 1998 May 28; 393(6683):396.]. Nature. 391:43-50, 1998 • Darzynkiewicz Z. Juan G. Li X. Gorczyca W. Murakami T. Traganos F. Cytometry in cell necrobiology: analysis of apoptosis and accidental cell death (necrosis). Cytometry. 27:1-20, 1997
Apoptotic HL-60 cells were detected by FACS analysis of FITC-dUTP-labelled DNA breaks using the Apo-Direct kit (BD-Pharmingen) according to the manufacturer's protocol.

Cc1c(Cl)cc(NC(=O)NC(C)(C)CC(C)(C)C)c(O)c1Cl [Compound 102]
IC50 (Papain): 50 to 100 µM | IC50 (Trypsin): 10 to 50 µM | IC50 (hPin1): 1 to 10 µM | induction of apoptosis (FACS analysis of FITC-dUTP-labelled DNA breaks) (HL-60 cells): induce apoptosis
